Source: patent US20100009970A1, “COMPOSITIONS AND METHODS FOR TREATMENT OF VIRAL DISEASES” (Combinatorx (Singapore) Pte. Ltd., priority 2008, published 2010)
Where “and” joins values, the source holds several entries; their conditions need not be identical. Identical values can stand only once. Counter-ions that a name gives are not always drawn. Like-named read-outs stand apart in the source and are kept apart here.

How the values were obtained:
[1] = in vitro; conditions: human
[2] = test system: Huh7 cells expressing a subgenomic RNA replicon of Con1 (genotype 1b) sequence origin; assay: microbe, parasite or virus in culture; conditions: Hepatitis C virus
[3] = test system: Huh7 cells expressing a subgenomic RNA replicon of Con1 (genotype 1b) sequence origin
[4] = GETYPE1B, Huh-7, 72 h, read-out: Max Effect @CC30 (inhibition)
[5] = Huh-7, 48 h, read-out: Max Effect
[6] = Huh-7, read-out: IC50 (uM) [SG]
[7] = Huh-7, read-out: Max Effect@CC30 (inhibition)

Row | Compound | CC50 ([1]; CC50) [µM] | CC50 ([1]; CC50 (uM)) [µM] | CC50 ([1]; CC50 (uM) [SG]) [µM] | Emax [2, 4] [%] | IC50 ([2]; Huh-7, 48 h) [µM] | Emax [2, 5] [%] | IC50 ([2]; Huh-7, 72 h) [µM] | IC50 [2, 6] [µM] | Emax [2, 7] [%] | Synergy Score [3] | TI (CC50/IC50) [3] | IC50 [3] [µM] | other results
1 | CN(C)[C@H]1CC[C@@H](c2ccc(Cl)c(Cl)c2)c2ccccc21 [N,N-Dimethyl Sertraline, (1S,4S)-4-(3,4-dichlorophenyl)-N,N-dimethyl-1,2,3,4-tetrahydronaphthalen-1-amine] | > 13.4 | 72.2 | 64.7 ± 10.6 | 99 | 7.77 | 70 | 5.22 ± 2.2 | 6.07 ± 2.2 | 99 | 0.89 | >1.727 |  | IC90 ([2]; Huh-7): 18.1 ± 2.77 µM; IC90 ([2]; Huh-7, 72 h): 17.1 ± 2.93 µM
2 | CNC1CCC(c2ccc(C(F)(F)F)cc2)c2ccccc21 (stereo not shown) [Sertraline B-Ring para-Trifluoromethane, N-methyl-4-(4-(trifluoromethyl)phenyl)-1,2,3,4-tetrahydronaphthalen-1-amine] | 15.9 | 14.2 | 14.2 | 0 | 12.2 | 99 | 13.4 | 13.4 | 0 | 1.93 | 1.299 |  | 
3 | CN[C@H]1CC[C@@H](c2ccc(Cl)c(Cl)c2)c2ccc(CNS(C)(=O)=O)cc21 [N-(((5S,8S)-5-(3,4-dichlorophenyl)-8-(methylamino)-5,6,7,8-tetrahydronaphthalen-2-yl)methyl)methanesulfonamide] | 10.5 | 11.2 ± 0.3 | 11.2 ± 0.3 | 59.7 ± 3.5 | 5.97 | 100 | 3.28 ± 1.5 | 3.28 ± 1.5 | 59.7 ± 3.5 | 0.55 | 1.761 |  | 
4 | COC1CC[C@@H](c2ccc(Cl)c(Cl)c2)c2ccccc21 (stereo partly drawn) [Methoxy 4S-Sertraline] |  | > 50 |  |  |  |  |  |  |  |  |  | 26.4 | IC50 ([2]; Huh-7): 22.7 µM; IC90 [3]: 46.1 µM and 46.9 µM; Max Effect@CC30 (inhibition) [3]: 93.98% and 47.76%
5 | CN(C)[C@H]1CC[C@@H](c2ccc(Cl)c(Cl)c2)c2ccc(NS(C)(=O)=O)cc21 [Dimethyl Sertraline Reverse Sulfonamide, N-((5S,8S)-5-(3,4-dichlorophenyl)-8-(dimethylamino)-5,6,7,8-tetrahydronaphthalen-2-yl)methanesulfonamide] | > 13.4 | 16.5 | 16.5 | 70 |  | 44 | 3.45 | 3.45 | 70 | 1.22 |  |  | 
6 | CN[C@H]1CC[C@@H](c2ccc(Cl)c(Cl)c2)c2ccc(NS(=O)(=O)C3CC3)cc21 [N-((5S,8S)-5-(3,4-dichlorophenyl)-8-(methylamino)-5,6,7,8-tetrahydronaphthalen-2-yl)cyclopropanesulfonamide] |  | 7.45 | 7.45 |  |  |  |  | 5.62 | 58.8 |  |  |  | IC50 ([2]; Huh-7): 5.63 µM; IC90 ([2]; Huh-7): 10.7 µM; Max Effect@CC30 (inhibition) [3]: 56.82%
7 | CN[C@H]1CC[C@@H](c2ccc(Cl)c(Cl)c2)c2ccc(C#N)cc21 [Sertraline Nitrile, (5S,8S)-5-(3,4-dichlorophenyl)-8-(methylamino)-5,6,7,8-tetrahydronaphthalene-2-carbonitrile] | > 13.4 | 14.8 | 14.8 | 87 | 7.46 | 89 | 4.81 | 4.81 | 87 | 0.52 | >1.796 |  | 
8 | CN[C@H]1CC[C@@H](c2ccc(Cl)c(Cl)c2)c2ccc(CO)cc21 [Sertraline A-Ring Ethanol, ((5S,8S)-5-(3,4-dichlorophenyl)-8-(methylamino)-5,6,7,8-tetrahydronaphthalen-2-yl)methanol] | 11.1 | 14.2 ± 0.3 | 14.2 ± 0.3 | 92 ± 5.6 | 4.48 | 97 | 2.85 ± 1.21 | 2.85 ± 1.21 | 92 ± 5.6 | 1.46 | 2.472 |  | IC90 ([2]; Huh-7): 11.3 ± 2.91 µM; IC90 ([2]; Huh-7, 72 h): 11.3 ± 2.91 µM
9 | CN[C@H]1CC[C@@H](c2ccc(Cl)c(Cl)c2)c2ccc(C(=O)OC)cc21 [Sertraline A-ring Methyl Ester, (5S,8S)-methyl 5-(3,4-dichlorophenyl)-8-(methylamino)-5,6,7,8-tetrahydronaphthalene-2-carboxylate] | 8.01 | 13.7 | 13.7 | 78 | 6.42 | 99 | 9.13 | 9.13 | 78 | 0.51 | 1.248 |  | 
10 | COC1CC[C@@H](c2ccc(Cl)c(Cl)c2)c2ccccc21 (single isomer, unassigned) [Methoxy 4S-Sertraline-P1] |  |  | > 50 |  |  |  |  | 22.7 |  |  |  |  | IC90 ([2]; Huh-7): 46.1 µM; Max Effect@CC30 (inhibition) [3]: 93.98%
11 | COc1ccc(CCN(C)CCC[C@](C#N)(c2ccc(OC)c(OC)c2)C(C)C)cc1OC [R(+)-Verapamil (e.g., hydrochloride), R(+)-Verapamil, reference compound] |  |  |  |  |  |  |  |  |  |  |  | 15.7 | 
12 | NC1CCC(c2ccc(Cl)c(Cl)c2)c2ccccc21 (racemic) | 7.84 |  |  |  | 6.26 | 99 |  |  |  | 1.51 | 1.252 |  | 
13 | CN[C@H]1CC[C@@H](c2ccc(Cl)c(Cl)c2)c2ccccc21 [Sertraline (e.g., hydrochloride), Sertraline, reference compound] |  |  |  |  |  | 99 |  |  |  | 2.76 |  |  | CC50 at 48 h ([1]; CC50): 8.83 µM
14 | Cc1ccc(NCCCc2ccccc2)c(N)c1 [JSH-23, reference compound] |  |  |  |  |  |  |  |  |  |  |  | 2.55 | 
15 | Cc1ccc(S(=O)(=O)/C=C/C#N)cc1 [Bay 11-7082, reference compound] |  |  |  |  |  |  |  |  |  |  |  | 15 | 
16 | N#CC(C#N)=Cc1ccc(O)c(O)c1 [Tyrphostin 23, tyrphostin 23, reference compound] |  |  |  |  |  |  |  |  |  |  |  | 14.6 | 
17 | C[C@@H]1C[C@H]2[C@@H]3CCC4=CC(=O)C=C[C@]4(C)[C@@]3(Cl)[C@@H](O)C[C@]2(C)[C@@]1(O)C(=O)CCl [Mometasone (e.g., furoate), mometasone, reference compound] |  |  |  |  |  |  |  |  |  |  |  | 11.3 | 
18 | C/C1=C2/[N-][C@H]([C@H](CC(N)=O)[C@@]2(C)CCC(=O)NC[C@H](C)OP(=O)([O-])O[C@H]2[C@@H](O)[C@@H](n3cnc4cc(C)c(C)cc43)O[C@@H]2CO)[C@]2(C)N=C(/C(C)=C3N=C(/C=C4N=C1[C@@H](CCC(N)=O)C\4(C)C)[C@@H](CCC(N)=O)[C@]\3(C)CC(N)=O)[C@@H](CCC(N)=O)[C@]2(C)CC(N)=O.[CH3-].[Co+3] [Mecobalamin, mecobalamin, reference compound] |  |  |  |  |  |  |  |  |  |  |  | 0.179 | 
19 | O=C1C(Cl)=C(NCCN2CCOCC2)C(=O)c2ncccc21 [NSC 663284, reference compound] |  |  |  |  |  |  |  |  |  |  |  | 0.614 | 
20 | CC1=C(/C=C/C(C)O)C(C)(C)CCC1 (stereo not drawn) [Beta-Ionol] |  |  |  |  |  |  |  |  |  |  |  | 21 | 
21 | O=[N+]([O-])c1ccc2nc(N3CCNCC3)ccc2c1 [6-Nitroquipazine, reference compound] |  |  |  |  |  |  |  |  |  |  |  | 16.4 | 
22 | N[C@@H]1CC[C@H](c2ccc(Cl)c(Cl)c2)c2ccccc21 [(1R,4R)-Desmethyl Sertraline, (1R,4R)-4-(3,4-dichlorophenyl)-1,2,3,4-tetrahydronaphthalen-1-amine] | > 8.83 | 8.1 | 8.1 | 0 | 7.32 | 81 | 8.7 | 8.7 | 0 | 0.57 | >1.206 |  | 
23 | CC(C)(C)c1cc(O)c(C(C)(C)C)cc1O [BHQ, reference compound] |  |  |  |  |  |  |  |  |  |  |  | 23.3 | 
24 | CNC1CCC(c2ccc(Oc3ccccc3)cc2)c2ccccc21 (stereo not shown) [Sertraline B-ring para-Phenoxy, N-methyl-4-(4-phenoxyphenyl)-1,2,3,4-tetrahydronaphthalen-1-amine] | 7.46 | 6.8 | 7.85 ± 1.48 | 65 | 3.75 | 99 | 5.15 | 4.02 ± 1.6 | 81 ± 22.6 | 0.38 | 1.987 |  | 
25 | C/C1=C2/[N-]C([C@H](CC(N)=O)[C@@]2(C)CCC(=O)NC[C@@H](C)OP(=O)([O-])O[C@H]2[C@@H](O)[C@@H](n3cnc4cc(C)c(C)cc43)O[C@@H]2CO)[C@]2(C)N=C(/C(C)=C3N=C(/C=C4N=C1[C@@H](CCC(N)=O)C\4(C)C)[C@@H](CCC(N)=O)[C@]\3(C)CC(N)=O)[C@@H](CCC(N)=O)[C@]2(C)CC(N)=O.[CH2-][C@H]1O[C@@H](n2cnc3c(N)ncnc32)[C@@H](O)[C@@H]1O.[Co+3] [Cobamamide, cobamamide, reference compound] |  |  |  |  |  |  |  |  |  |  |  | 0.41 | 
26 | CN[C@H]1CC[C@@H](c2ccc(Cl)c(Cl)c2)c2ccc(S(=O)(=O)N(C)C)cc21 [Sertraline N,N-dimethylsulfonamide, (5S,8S)-5-(3,4-dichlorophenyl)-N,N-dimethyl-8-(methylamino)-5,6,7,8-tetrahydronaphthalene-2-sulfonamide] | 7.85 | 8.87 | 8.87 | 38 | 7.3 | 91 | 6.69 | 6.69 | 38 | 0.53 | 1.076 |  | 
27 | Nc1ccccc1NC(=O)CCCCCCC(=O)Nc1ccccc1 [CAY10433, reference compound] |  |  |  |  |  |  |  |  |  |  |  | 7.88 | 
